These results are taken from patent US4686103A, “Method of managing cattle breeding herds” (Iowa State University Research Foundation, Inc., priority 1985, dated 1987).

Read-outs that look alike come from different tables or passages of the source.

Assay [1] has as its system first-calf crossbred beef heifers. As to the kind of experiment: Induction of parturition with relaxin in combination with dexamethasone or cloprostenol. In kind it is in vivo, cattle. As to conditions: for Interval between treatment and calving: mean ± SE. An excerpt: Crossbred beef heifers were bred by artificial insemination and assigned randomly to treatment groups on day 268 of pregnancy. Blood samples were collected daily for radioimmunoassay of relaxin, progesterone, estrone and 17β-estradiol. Daily measures were obtained of pelvic dimensions and cervical dilation during the prepartum and postpartum periods. On day 272, heifers were given relaxin alone, or in combination with a prostaglandin (e.g., cloprostenol) or a glucocorticoid (e.g., dexamethasone).
On day 272, 10 days before expected parturition, dexamethasone (20 mg) was administered intramuscularly (im) to 30 first-calf crossbred beef heifers. Relaxin (3,000 Units) was administered either at the same time or 24 h later either im or infused into the cervical os. The relaxin was dissolved in phosphate buffer saline (PBS) for im injection and in PBS plus a sterile gel for infusion in the cervical os. Controls received the dexamethasone im plus either 1 ml PBS im or 1 ml PBS-gel vehicle infused into the cervical os. There were 5 heifers assigned randomly to each treatment group.
On day 272, cloprostenol (500 μg) was administered im to 30 first-calf crossbred beef heifers. Relaxin (3,000 Units) wad administered either at the same time or 24 h later either im or infused into the cervical os. The relaxin was dissolved in PBS for injection and in PBS plus sterile gel for infusion into the cervical os. Controls received the cloprostenol im plus either 1 ml PBS im or 1 ml PBS-gel vehicle infused into the cervical os. There were 5 heifers assigned randomly to each treatment group.

Assay [2] deals with first- and second-calf beef heifers. In words: Induction of parturition with cloprostenol and relaxin or PBS im. In kind it is in vivo, cattle. As to conditions: for Animals with placenta retained ≥24 h / Ease of calving: day 272; for Interval between treatment and calving: day 272, mean ± SE. How it is done:
The effect of cloprostenol and relaxin or PBS given im on induction or parturition was determined in 16 first-calf and 25 second-calf beef heifers. The 41 heifers were given cloprostenol im plus relaxin or PBS im on day 272 of pregnancy.

Assay [3] deals with primiparous beef heifers. As to the kind of experiment: Relaxin-induced parturition in beef heifers, intracervical infusion on day 278. Format: in vivo, cattle. The conditions noted are these: for Day of calving: day of gestation, mean ± SE. The text has this:
Forty-seven crossbred beef heifers approaching their first calving were used in this study. All heifers were bred by artificial insemination at estrus (day 0); pregnancy lasts approximately 283 days. Heifers calved at an average age of 25^± 1 months (± standard error, SE). Heifers were maintained under pasture conditions during the spring, summer and fall throughout gestation. Mixed silage (6.8 kg/animal/day) supplemented the hay fed during the winter. During the month before calving, corn (2/3 kg/animal/day) and mixed silage (9.0 kg/animal/day) were fed in addition to the ad libitum supply of hay.
(§1) Beginning on day 270 of gestation, the animals were assigned randomly to one of three treatment groups; gel vehicle-treated controls, Number (N)=16; single relaxin-treated heifers, N=14; and double relaxin-treated heifers, N=17. A daily blood sample (10 ml) was obtained from a jugular vein via a hypodermic needle (16 gauge, 3.8-cm length). The blood was divided equally into two culture tubes containing 0.1 ml of heparinized saline (10 U/ml), maintained on ice, and centrifuged (2,000×g; 4° C.); plasma was decanted into two culture tubes, frozen, and stored at -20° C. for radioimmunoassay of progesterone, estrone (E1), and 17β-estradiol (17β-E2. Pelvic and cervical measurements were obtained immediately after the blood collection except on the day of treatment and postcalving, when these measurements were obtained at 12-hour intervals for 60 hours. Relaxin (1 mg, 3,000 U/mg) was infused 4 cm into the cervical os by a sterile insemination pipette on day 278.
Relaxin was extracted from ovaries of pregnant pigs and purified according to procedures described previously. See Schwabe et al., Rec. Prog. Horm. Res. (1978) 34:123. Purified porcine relaxin (3,000 U/mg) was suspended in 1 ml of vehicle prepared by mixing 0.01 molar phosphate buffer saline (M PBS), pH 7.0, and sterile gel (1 ml volume/volume "KY-4", a surgical lubricating jelly, Johnson and Johnson, Inc., New Brunswick, N.J.). Relaxin or gel vehicle was infused by means of a sterile insemination pipette after the cervical probe was withdrawn. A gloved hand was maintained in the reproductive tract of the heifer to guide the pipette through the cervical sphincter. Relaxin or the gel vehicle then was introduced and deposited 4 cm into the cervix.

Assay [4] deals with primiparous beef heifers. As to the kind of experiment: Relaxin effect on pelvic area and cervical dilatation in beef heifers. In kind it is in vivo, cattle. As to conditions: for cervical dilatation increase: within 24 h after administration. How it is done:
as §1
Relaxin was extracted from ovaries of pregnant pigs and purified according to procedures described previously. See Schwabe et al., Rec. Prog. Horm. Res. (1978) 34:123. […]
Dilatation of the cervix was measured intravaginally by using a specially designed stainless-steel probe. […] The tips of the rods were expanded by rotating the conical swivel to a uniform resistance against the cervical wall, then withdrawn, and the separation of the rods was measured.
The area of the pelvic canal was calculated from determination of height and width by using a pelvimeter (Lane Manufacturing, Inc., Denver, Colo.) providing internal landmarks. Pelvic height was determined by measuring the linear distance from the midpoint of the dorsal surface of the symphysis pubis to the ventral surface of the prominent junction of the third and fourth sacral segments. Pelvic widths were determined by measuring the greatest linear distance between depression points in the shaft of the ilia at right angles to the vertical measurements. […]

Assay [5] concerns estrogen-primed immature Swiss-Webster mice. The conditions noted are these: unit defined by interpubic ligament formation vs WL1000 standard; cited from earlier work.
Another assay relates to cows. The conditions noted are these: cited from earlier work.
The mark [6] stands for this setting: first-calf heifers treated day 272.
Where [7] appears, read: first-calf heifers treated day 272, relaxin 3,000 Units, dexamethasone 20 mg or cloprostenol 500 μg.
[8] abbreviates: relaxin twice (2 × 3,000 U, 12 h apart).
Where [9] appears, read: overall: relaxin with Dex or Clo vs Dex or Clo plus PBS.

Take `O=C(O)CCC/C=C\CC1C(O)CC(O)C1/C=C/C(O)COc1cccc(Cl)c1` (stereo not shown) [PBS & Clo, cloprostenol]: the “Animals with placenta retained ≥24 h” value in assay [1] (setting [6]) turned out to be 80%; in assay [2] (1st & 2nd calf heifers), 93%; in assay [2] (1st calf heifers), 80%; in assay [2] (2nd calf heifers), 100%. The Ease of calving came to 40% in assay [1] (setting [6]), 63% in assay [2] (1st & 2nd calf heifers), 40% in assay [2] (1st calf heifers) and 75% in assay [2] (2nd calf heifers). The “Interval between treatment and calving” value came out at 54 ± 3.4 h in assay [1] (setting [7]); 54 h in assay [1] (first-calf heifers treated day 272, relaxin 3,000 Units, dexamethasone 20 mg or cloprostenol 500 μg, listed as cloprostenol plus PBS); 45 ± 6 h in assay [2] (1st & 2nd calf heifers); 46 ± 5 h in assay [2] (1st calf heifers); 44 ± 7 h in assay [2] (2nd calf heifers).
With relaxin, the “incidence of retained placenta beyond 24 h postpartum” value in the assay on primiparous beef heifers [3] (all relaxin-treated heifers (once or twice)) is reported as 0 of 31. Moreover, the “Heifers calving within 48 h after treatment, %” value with primiparous beef heifers [3] (relaxin once (3,000 U)) is on record as 45%; in the assay on primiparous beef heifers [3] (setting [8]), 88%. Moreover, the “Mean interval of days between first treatment and calving” value was 2.5 days in the assay on primiparous beef heifers [3] (relaxin once (3,000 U)) and 2.0 days in the assay with primiparous beef heifers [3] (setting [8]). In addition, the Day of calving in the assay on primiparous beef heifers [3] (relaxin once (3,000 U) into cervical os) amounted to 280.5 ± 0.8; in the assay with primiparous beef heifers [3] (relaxin twice (2 × 3,000 U, 12 h apart) into cervical os) it was 278.6 ± 1.2. Besides, the “Heifers calving within 48 h after treatment, No.” value in the assay on primiparous beef heifers [3] (relaxin once (3,000 U), 14 heifers) was determined as 6; in the assay with primiparous beef heifers [3] (relaxin twice (2 × 3,000 U, 12 h apart), 17 heifers), 15. Further, the “calved earlier than PBS-gel vehicle-treated heifers, average” value with primiparous beef heifers [3] (relaxin twice) turned out to be 3.3 days. In addition, the “heifers calving within 24 h after treatment” value with primiparous beef heifers [3] (relaxin-treated group vs PBS-gel vehicle, P<0.001) is “more heifers calving”. The duration of gestation result in the assay on primiparous beef heifers [3] (relaxin-treated heifers vs PBS-gel vehicle controls, P<0.05) is “reduced”. The pelvic area result in the assay on primiparous beef heifers [4] (12 h after treatment, all relaxin-treated heifers, P<0.05) is “marked increases”. Besides, the cervical dilatation increase is listed as 526% in the assay on primiparous beef heifers [4] (relaxin once) and 634% with primiparous beef heifers [4] (relaxin twice). Besides, the “Animals with placenta retained ≥24 h” value in assay [1] (setting [9]) is 23%. For the same molecule, the Ease of calving in assay [1] (setting [9]) is given as 62%. Also, the “Interval between treatment and calving” value came out at 34 ± 2.8 h in assay [1] (overall: relaxin with Dex or Clo vs Dex or Clo plus PBS, 60 first-calf heifers) and 34 h in assay [1] (overall: relaxin with Dex or Clo vs Dex or Clo plus PBS, 60 first-calf heifers, listed as relaxin). Moreover, in assay [5], the relaxin potency was 3000 Units/mg. Besides, the duration of pregnancy result in the assay on cows (3000 U/mg, four days before expected parturition) is recorded as “did not significantly reduce”; in the assay with cows (heifers given relaxin intracervically on three consecutive days), “Some shortening of pregnancy”. For the same molecule, the cervical dilation result in the assay on cows (cows, a few days before expected parturition) was “induce cervical dilation”.
In the case of `C[C@@H]1C[C@H]2[C@@H]3CCC4=CC(=O)C=C[C@]4(C)[C@@]3(F)[C@@H](O)C[C@]2(C)[C@@]1(O)C(=O)CO` [PBS + Dex, dexamethasone], in assay [1] (setting [6]), the “Animals with placenta retained ≥24 h” value is 70% and the Ease of calving is reported as 30%. In assay [1] (setting [7]), the “Interval between treatment and calving” value was determined as 53 ± 2.6 h. Moreover, in assay [1] (first-calf heifers treated day 272, relaxin 3,000 Units, dexamethasone 20 mg or cloprostenol 500 μg, listed as dexamethasone plus PBS), the “Interval between treatment and calving” value amounted to 53 h.
